Experimental findings from patent US9586986B2, “Substituted 7-deazapurine ribonucleosides for therapeutic uses” (Institute of Organic Chemistry and Biochemistry ASCR, v.v.i., priority 2014, dated 2017) are described below.

Common to all, as to assay type: cell-based
One series relates to K562. Kind of series: Cytostatic/cytotoxic MTT assay, K562. The settings on record: Homo sapiens, K562; 72 h incubation; read-out: MTT, IC50 K562. An excerpt:
(§1) Unless otherwise stated, all cells were purchased from the […] (ATCC). The CCRF-CEM line is derived from T lymphoblastic leukemia, evincing high chemosenzitivity, K562 represent cells from a […] patient sample with bcr-abl translocation, HCT116 is colorectal tumor cell line and its p53 gene knock-down counterpart (HCT116p53−/−, Horizon Discovery, UK) is a model of human cancers with p53 inactivation frequently associated with poor prognosis, A549 cell line is lung adenocarcinoma. The daunorubicin resistant subline of CCRF-CEM cells (CEM-DNR bulk) and paclitaxel resistant subline K562-TAX were selected in our laboratory by cultivation of maternal cell lines in increasing concentrations of daunorubicine or paclitaxel, respectively. The CEM-DNR cells overexpress mrp-1 and mdr-1 genes, while K562-TAX cells overexpress mdr-1 only. Both proteins belong to the family of ABC transporters and are involved in the primary and/or acquired multidrug resistance phenomenon (ref.: Gottesman, M. M.; Fojo, T.; Bates, S. E. Multidrug resistance in cancer: role of ATP-dependent transporters. Nat. Rev. Cancer. 2002, 2, 48-58. (b) Noskova, V.; Dzubak, P.; Kuzmina, G.; Ludkova, A.; Stehlik, D.; Trojanec, R.; Janostakova, A.; Korinkova, G.; Mihal, V.; Hajduch, M. In vitro chemoresistance profile and expression/function of MDR associated proteins in resistant cell lines derived from CCRF-CEM, K562, A549 and MDA MB 231 parental cells. Neoplasma 2002, 49, 418-425). Non-malignant MRC-5 and BJ cells, derived from normal human fibroblasts, were used as controls. The cells were maintained in Nunc/Corning 80 cm^2 plastic tissue culture flasks and cultured in cell culture medium (DMEM/RPMI 1640 with 5 g/L glucose, 2 mM glutamine, 100 U/mL penicillin, 100 µg/mL streptomycin, 10% fetal calf serum, and NaHCO3). Cell suspensions were prepared and diluted according to the particular cell type and the expected target cell density (25,000-30,000 cells/well based on cell growth characteristics). Cells were added by pipette (80 L) into 96-well microtiter plates. Inoculates were allowed a pre-incubation period of 24 h at 37° C. and 5% CO2 for stabilization. Four-fold dilutions, in 20-L aliquots, of the intended test concentration were added to the microtiter plate walls at time zero. All test compound concentrations were examined in duplicate. Incubation of the cells with the test compounds lasted for 72 h at 37° C., in a 5% CO2 atmosphere at 100% humidity. At the end of the incubation period, the cells were assayed using MTT. Aliquots (10 L) of the MTT stock solution (5 mg/ml) were pipetted into each well and incubated for another 1-4 h. After this incubation period the formazan produced was dissolved by addition of 100 µL/well of 10% aq SDS (pH 5.5), followed by a further incubation at 37° C. overnight. The optical density was measured at 540 nm. The IC50 value, the drug concentration inhibiting the cell growth by 50%, was calculated from appropriate dose-response curves.
(§2) In vitro cytotoxic/cytostatic activity final nucleosides 1-5 was initially evaluated against […] cell lines derived from human solid tumors including lung (A549 cells) and colon (HCT116 and HCT116p53−/−) carcinomas, as well as leukemia cell lines (CCRF-CEM, CEM-DNR, K562 and K562-TAX) and, for comparison, non-malignant BJ and MRC-5 fibroblasts. Concentrations inhibiting the cell growth by 50% (IC50) were determined using a quantitative metabolic staining with 3-(4,5-dimethylthiazol-2-yl)-2,5-diphenyltetrazolium bromide (MTT) (ref.: Denizot, F.; Lang, R. Rapid colorimetric assay for cell growth and survival: Modifications to the tetrazolium dye procedure giving improved sensitivity and reliability. J. Immunol. Meth. 1986, 89, 271-277) following a 3-day treatment.
Background: Formazan colour is commonly taken as a measure of viable cells.

The subject of the next series is K562-TAX. Put plainly: Cytostatic/cytotoxic MTT assay, K562-TAX. The conditions noted are these: Homo sapiens, paclitaxel resistant subline, 72 h, read-out: MTT, IC50 K562-TAX.
Description: as §1, §2
(§3) Multidrug resistance is a major therapeutic problem in cancer chemotherapy. […]

A further series deals with A549. Put plainly: Cytostatic/cytotoxic MTT assay, A549. The conditions noted are these: Homo sapiens, A549; 72 h incubation; read-out: MTT, IC50 A549.
Description: as §1, §2

The subject of a further series is HCT116p53-/-. Kind of series: Cytostatic/cytotoxic MTT assay, HCT116p53-/-. The conditions noted are these: Homo sapiens, HCT-116; 72 h incubation; read-out: MTT, IC50 HCT116 p53-/-.
Description: as §1, §2, §3

In another series the test system is MRC-5. Kind of series: Cytostatic/cytotoxic MTT assay, MRC-5 fibroblasts. The conditions noted are these: Homo sapiens, MRC5; non-malignant fibroblasts, 72 h; read-out: MTT, IC50 MRC-5.
Description: as §1, §2

Series [1] concerns Huh-7 cells harboring replicon 1B. Put plainly: Cytotoxicity in replicon 1B cells. The settings on record: HCV subtype 1B replicon. Here is the method:
(§4) Compounds were also tested in Huh-7 cells harboring sub-genomic reporter replicons derived from HCV subtypes 1B and 2A (ref.: Stuyver, L. J.; Whitaker, T.; McBrayer, T. R.; Hernandez-Santiago, B. I.; Lostia, S.; Tharnish, P. M.; Ramesh, M.; Chu, C. K.; Jordan, R.; Shi, J. X.; Rachakonda, S.; Watanabe, K. A.; Otto, M. J.; Schinazi, R. F. Antimicrob. Agents Chemother. 2003, 47, 244-254).

For series [2], the system named is Huh-7 cells harboring replicon 2A. Put plainly: Cytotoxicity in replicon 2A cells. The conditions noted are these: HCV subtype 2A replicon. Here is the method: as §4

For the molecule `CSc1ncnc2c1c(-c1ccco1)cn2[C@@H]1O[C@H](CO)[C@@H](O)[C@H]1O` [Compound 2a, 5-(Furan-2-yl)-4-methylsulfanyl-7-(β-D-ribofuranosyl)-7H-pyrrolo[2,3-d]pyrimidine], the IC50 in the series on K562 worked out at 0.04 µM; in the series with K562-TAX, 0.21 µM; with A549 it was 0.05 µM; with HCT116p53-/-, 0.01 µM; with MRC-5, 73.9 µM. Further, the CC50 – broadly, the concentration giving 50% cytotoxicity – in series [1] was 38.6 µM; in series [2], more than 44 µM.
On to `CSc1ncnc2c1c(-c1ccoc1)cn2[C@@H]1O[C@H](CO)[C@@H](O)[C@H]1O` [Compound 2b, 5-(Furan-3-yl)-4-methylsulfanyl-7-(β-D-ribofuranosyl)-7H-pyrrolo[2,3-d]pyrimidine], for which the IC50 is 0.06 µM in the series on K562; 3.25 µM with K562-TAX; 0.28 µM in the series with A549; 0.1 µM in the series on HCT116p53-/-; more than 100 µM with MRC-5. In addition, the CC50 in series [1] and in series [2] was more than 44 µM each time.
In the case of `CSc1ncnc2c1c(-c1cccs1)cn2[C@@H]1O[C@H](CO)[C@@H](O)[C@H]1O` [Compound 2c, 4-Methylsulfanyl-7-(β-D-ribofuranosyl)-5-(thiophen-2-yl)-7H-pyrrolo[2,3-d]pyrimidine], the IC50 with K562 is 11.6 µM; with K562-TAX, more than 20 µM; in the series on A549, more than 20 µM; in the series with HCT116p53-/-, more than 20 µM; in the series on MRC-5, more than 100 µM. In addition, the CC50 in series [1] and in series [2] was more than 44 µM throughout.
As for `CSc1ncnc2c1c(-c1ccsc1)cn2[C@@H]1O[C@H](CO)[C@@H](O)[C@H]1O` [Compound 2d, 4-Methylsulfanyl-7-(β-D-ribofuranosyl)-5-(thiophen-3-yl)-7H-pyrrolo[2,3-d]pyrimidine], the IC50 in the series with K562 is 0.45 µM; with K562-TAX it was more than 20 µM; in the series on A549 it was more than 20 µM; in the series on HCT116p53-/-, more than 20 µM; in the series on MRC-5 it was more than 100 µM. The CC50 in series [1] and in series [2] was more than 44 µM in each case.
With `CSc1ncnc2c1c(-c1ccccc1)cn2[C@@H]1O[C@H](CO)[C@@H](O)[C@H]1O` [Compound 2e, 4-Methylsulfanyl-5-phenyl-7-(β-D-ribofuranosyl)-7H-pyrrolo[2,3-d]pyrimidine], the IC50 in the series with K562 is more than 20 µM; with K562-TAX, more than 20 µM; in the series with A549 it was more than 20 µM; in the series with HCT116p53-/-, more than 20 µM; in the series on MRC-5 it was more than 100 µM. Besides, the CC50 in series [1] and in series [2] was more than 44 µM throughout.
As for `CSc1ncnc2c1c(-c1cc3ccccc3o1)cn2[C@@H]1O[C@H](CO)[C@@H](O)[C@H]1O` [Compound 2f, 5-(Benzofuran-2-yl)-4-methylsulfanyl-7-(β-D-ribofuranosyl)-7H-pyrrolo[2,3-d]pyrimidine], the IC50 with K562 is 17.2 µM; in the series on K562-TAX it was more than 20 µM; in the series with A549, more than 20 µM; with HCT116p53-/- it was more than 20 µM; in the series with MRC-5, 70.8 µM. For the same molecule, the CC50 in series [1] and in series [2] was more than 44 µM in each case.
`C#Cc1cn([C@@H]2O[C@H](CO)[C@@H](O)[C@H]2O)c2ncnc(SC)c12` [Compound 2g, 5-Ethynyl-4-methylsulfanyl-7-(β-D-ribofuranosyl)-7H-pyrrolo[2,3-d]pyrimidine]: the IC50 was 0.03 µM with K562; 0.07 µM with K562-TAX; 0.14 µM in the series on A549; 0.09 µM in the series with HCT116p53-/-; more than 100 µM with MRC-5. For the same molecule, the CC50 in series [1] and in series [2] was more than 44 µM throughout.
In the case of `CSc1ncnc2c1c(I)cn2[C@@H]1O[C@H](CO)[C@@H](O)[C@H]1O` [Compound 2h, 5-Iodo-4-methylsulfanyl-7-(β-D-ribofuranosyl)-7H-pyrrolo[2,3-d]pyrimidine], the IC50 in the series with K562 is 10.5 µM; in the series on K562-TAX, 7.73 µM; in the series on A549, more than 20 µM; in the series on HCT116p53-/-, more than 20 µM; in the series on MRC-5, more than 100 µM. In addition, the CC50 in series [1] and in series [2] was more than 44 µM throughout.
For `CNc1ncnc2c1c(-c1ccco1)cn2[C@@H]1O[C@H](CO)[C@@H](O)[C@H]1O` [Compound 3a, 5-(Furan-2-yl)-4-methylamino-7-(β-D-ribofuranosyl)-7H-pyrrolo[2,3-d]pyrimidine], the IC50 with K562 worked out at 0.22 µM; with K562-TAX, 15.1 µM; in the series on A549, 2.57 µM; in the series on HCT116p53-/-, 0.44 µM; in the series with MRC-5, 90.8 µM. Also, the CC50 in series [1] and in series [2] was more than 44 µM each time.
In the case of `CNc1ncnc2c1c(-c1ccoc1)cn2[C@@H]1O[C@H](CO)[C@@H](O)[C@H]1O` [Compound 3b, 5-(Furan-3-yl)-4-methylamino-7-(β-D-ribofuranosyl)-7H-pyrrolo[2,3-d]pyrimidine], the IC50 is more than 20 µM with K562; more than 20 µM with K562-TAX; more than 20 µM in the series on A549; more than 20 µM in the series on HCT116p53-/-; more than 100 µM in the series with MRC-5. Besides, the CC50 in series [1] and in series [2] was more than 44 µM each time.
With `CNc1ncnc2c1c(-c1cccs1)cn2[C@@H]1O[C@H](CO)[C@@H](O)[C@H]1O` [Compound 3c, 4-Methylamino-7-(β-D-ribofuranosyl)-5-(thiophen-2-yl)-7H-pyrrolo[2,3-d]pyrimidine], the IC50 is more than 20 µM with K562; more than 20 µM in the series with K562-TAX; more than 20 µM in the series with A549; more than 20 µM in the series on HCT116p53-/-; more than 100 µM with MRC-5. The CC50 in series [1] and in series [2] was more than 44 µM each time.
For `CNc1ncnc2c1c(-c1ccsc1)cn2[C@@H]1O[C@H](CO)[C@@H](O)[C@H]1O` [Compound 3d, 4-Methylamino-7-(β-D-ribofuranosyl)-5-(thiophen-3-yl)-7H-pyrrolo[2,3-d]pyrimidine], the IC50 in the series on K562 is more than 20 µM; with K562-TAX, more than 20 µM; in the series on A549, more than 20 µM; in the series on HCT116p53-/-, more than 20 µM; in the series with MRC-5, more than 100 µM. Further, the CC50 in series [1] and in series [2] was more than 44 µM in each case.
Turning to `CNc1ncnc2c1c(-c1ccccc1)cn2[C@@H]1O[C@H](CO)[C@@H](O)[C@H]1O` [Compound 3e, 4-Methylamino-5-phenyl-7-(β-D-ribofuranosyl)-7H-pyrrolo[2,3-d]pyrimidine], the IC50 was more than 20 µM in the series on K562; more than 20 µM in the series with K562-TAX; more than 20 µM with A549; more than 100 µM in the series on HCT116p53-/-; more than 100 µM in the series on MRC-5. Further, the CC50 in series [1] and in series [2] was more than 44 µM throughout.
